Each structure is given as a SMILES string.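 Dose response: 5 concentrations. Exposure: 48 h. Format: 96-well plates. Endpoint: linear interpolation; highest concentration if not reached. The concentration for 50% growth inhibition is given as GI50. TGI: concentration producing complete growth inhibition.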

Among the data in PubChem BioAssay (NCI) are GI50 and TGI values, retold here.

The experiment concerns MDA-MB-468 breast. Nature of the experiment: DTP human tumour cell line panel, 48 h.
For `O=c1cc(-c2ccccc2Cl)[nH]c2cc3c(cc12)OCO3`, the GI50 is 13900 nM and the TGI is greater than 100 µM.
Taken in the same sequence, the figures for `CN(C)CCOc1nc2ccccc2c2c1-c1ccc(Cl)cc1C2=O` were 606 nM and 1.97 µM.
For `CCN1C(=O)N(CC)C2C1NN=c1s/c(=C\c3ccccc3)c(=O)n12` (centres undefined) the same measures were 86.7 nM and greater than 100 µM.
For `C[C@@H](Oc1cc(-c2cnn(C3CC4(CCCNC4)C3)c2)cnc1N)c1c(Cl)ccc(F)c1Cl` (some centres undefined) the same measures were 1090 nM and 2.49 µM.
Turning to `O=C(CC1(O)C(=O)Nc2c(Cl)ccc(Cl)c21)c1ccc(C2CC2)cc1` (centres undefined), the GI50 was 297 nM and the TGI is 10.2 µM.
Regarding `CS[C@@]1(C(=O)Nc2ccc3[nH]nc(-c4ccc(OC(C)C)nc4)c3c2)CCN(CC(=O)N2CC=C(c3ccc(-c4ncn(C)n4)cc3)CC2)C1`, the GI50 was greater than 100000 nM and the TGI is greater than 100 µM.
Taken in the same sequence, the figures for `COc1ccc(C2C3=C(COC3=O)N(CCO)c3cc4c(cc32)OCCO4)cc1OC` (centres undefined) were 786 nM and 5.19 µM.
Taken in the same sequence, the figures for `CCOC(=O)C(Cc1ccc(OC)cc1)C(=O)OCC` were 4170 nM and 20.6 µM.
Taken in the same sequence, the figures for `COC(=O)Nc1nc2ccc(Sc3ccccc3)cc2[nH]1` were 165 nM and 1.53 µM.
Regarding `CC(=O)OCC(=O)C1(O)C(C)CC2C3C=C(C)C4=Cc5c(cnn5-c5ccccc5)CC4(C)C3C(O)CC21C` (centres undefined), the GI50 was 2030 nM and the total growth inhibition concentration (TGI) is 4.33 µM.
Taken in the same sequence, the figures for `COc1cc(C2C(C#N)=C(N)Oc3cc4c(cc32)OCO4)cc2c1OCO2` (centres undefined) were 112 nM and 0.836 µM.
For `COc1cc(/C=C/C(=O)c2ccc(Nc3nc(Nc4ccccc4)nc(Nc4ccc(Cl)cc4)n3)cc2)cc(OC)c1OC` the same measures were 11700 nM and greater than 32.5 µM.
In the case of `O=C(NO)c1cnc(N2CCN(S(=O)(=O)c3ccc4ccccc4c3)CC2)nc1`, the GI50 was 74.3 nM and the TGI was found to be 6.5 µM.
As to `COc1ccc(NC(=O)O[C@H]2[C@H](O[C@H]3[C@@H](O)COC(O[C@H]4C[C@H]5[C@@H]6CC=C7C[C@@H](O)CC[C@]7(C)[C@H]6CC[C@]5(C)[C@H]4[C@H](C)C(=O)CCC(C)C)[C@@H]3OC(C)=O)OC[C@@H](O)[C@@H]2O)cc1` (some centres undefined), the GI50 was less than 10 nM and the total growth inhibition concentration (TGI) came out at 0.63 µM.
Taken in the same sequence, the figures for `C=C=[CH][Sn]([c]1ccccc1)([c]1ccccc1)[c]1ccccc1` were 1340 nM and 2.66 µM.
Taken in the same sequence, the figures for `N#Cc1c(Oc2ccc(F)c(NC(=O)Cc3cccc(C(F)(F)F)c3)c2)ccc2nc(NC(=O)C3CC3)sc12` were 3980 nM and greater than 100 µM.
For `COc1cccc(Nc2nccc(Nc3ccc4[nH]ncc4c3)n2)c1` the same measures were 1250 nM and 2.77 µM.
For `COc1ccc2c(c1)Oc1nc(N)c(C#N)c(N)c1C2Sc1ccc(C)cc1` (centres undefined), the GI50 is 1200 nM and the TGI stood at 2.6 µM.
For `CCOc1cc(/C=N\NC(=O)N/N=C/c2ccc(O)c(OCC)c2)ccc1O` the same measures were 1440 nM and 7.27 µM.
Taken in the same sequence, the figures for `C/C(=N\Nc1cccc(Cl)n1)c1ccccn1` were 764 nM and 2.42 µM.
Take `CCCCCc1c(C)[nH]c(/C=c2\[nH]/c(=C3/C=c4ccccc4=N3)cc2OC)c1C`: the GI50 was 59.1 nM and the TGI was determined as 1.63 µM.
For `CC(C)N(C[C@H]1O[C@@H](n2cnc3c(N)ncnc32)[C@H](O)[C@@H]1O)C1CC(CCc2nc3ccc(C(C)(C)C)cc3[nH]2)C1` (some centres undefined) the same measures were 18400 nM and greater than 72.6 µM.
For `CCN(CC)c1ccc2nc3c4ccccc4c(=NC(=O)c4ccccc4-c4c5ccc(N(CC)CC)cc5[o+]c5cc(N(CC)CC)ccc45)cc-3oc2c1` the same measures were 1010 nM and 2.43 µM.
Taken in the same sequence, the figures for `O=C(Nc1ccc(S(=O)(=O)NC2CCCCCC2)cc1)C(c1ccccc1)S(=O)(=O)c1ccc(F)cc1` (centres undefined) were 863 nM and 3.23 µM.
As to `CCS/C(Nc1ccccc1)=C(\C#N)C(=O)N/N=C/c1ccc(Cl)cc1Cl`, the GI50 was 2600 nM and the TGI is 9.19 µM.
For the molecule `ClC1=C(Cl)C(Cl)=C(Cl)C1=Cc1ccc(Cl)cc1`, the concentration for 50% growth inhibition (GI50) was 251 nM and the TGI worked out at 0.869 µM.
For `C=C1C(=O)OC2CC3(C)OC3C3OC3C3=CC(OC3=O)C12` (centres undefined) the same measures were 1580 nM and 3.28 µM.
For `CCc1ccccc1-n1c(N)c(C#N)c(-c2ccc(OC)c(OC)c2)c(C#N)c1=O` the same measures were 37600 nM and greater than 100 µM.
For `CC(=O)N[C@@H](Cc1ccc(OP(=O)(O)O)cc1)C(=O)N[C@H]1CCC(=O)N2CCC[C@@H](C(=O)NCc3ccc(O)cc3)N2C1=O` the same measures were greater than 25000 nM and greater than 25 µM.
For the molecule `Cc1cc2c(C(C)C)c(O)c(O)c(C=O)c2c(O)c1-c1c(C)cc2c(C(C)C)c(O)c(O)c(C=O)c2c1O` (tested in a mixture with another compound), the GI50 was 1010 nM and the concentration for total growth inhibition (TGI) came out at 3.75 µM.
Taken in the same sequence, the figures for `N#CC[C@H](C1CCCC1)n1cc(-c2ncnc3[nH]ccc23)cn1` were 23200 nM and 78.8 µM.
In the case of `COc1ccc(-n2sc(=O)n(Cc3ccc(COC(=O)C(C)c4ccc(CC(C)C)cc4)cc3)c2=O)cc1` (centres undefined), the GI50 is 925 nM and the TGI came to 2.13 µM.
For `CNCCOc1nc2c3cnccc3cc(-c3cc(OC)c(OC)c(OC)c3)c2c2ccncc12` the same measures were 27.8 nM and 0.106 µM.
For `O=[N+]([O-])c1ccc(-c2ccccc2)c([As](=O)(O)O)c1` the same measures were 11800 nM and 28.1 µM.
As for `CC[C@H](C)[C@H](NC(=O)C12CC(NC(C)=O)(C1)C2)C(=O)N(C)[C@H](C[C@@H](OC(C)=O)c1nc(C(=O)N[C@@H](Cc2ccccc2)C[C@H](C)C(=O)OC)cs1)C(C)C`, the GI50 was 58.4 nM and the TGI was greater than 9.3 µM.
For `C=C(C)[C@@H]1CC[C@]2(C)[C@H](C=CC3=C4C[C@@](C)(CO)CC[C@]4(C)CC[C@]32C)[C@@]1(C)CCCN` the same measures were 1580 nM and 3.2 µM.
Take `CN(NC(=O)CC(=O)NN(C)C(=S)c1ccc(Cl)cc1)C(=S)c1ccc(Cl)cc1`: the GI50 was 23900 nM and the TGI is greater than 100 µM.
For `Brc1ccc(Br)nn1` the same measures were 1140 nM and 2.47 µM.
With `CCCCCCC1N=C(N)N=C(N)N1c1ccc(Cl)cc1` (centres undefined), the GI50 is 1350 nM and the TGI was found to be 4.72 µM.
Taken in the same sequence, the figures for `CN1CCN(c2ccc3nc4c(nc3c2C(F)(F)F)C(=O)c2ncccc2C4=O)CC1` were 1060 nM and 2.58 µM.
For `CCNCCNc1cc(-c2cccc(C(F)(F)F)c2)c(C#N)c2nc3ccccc3n12` the same measures were 1340 nM and 2.84 µM.
For `N#CSCC(=O)c1ccc(Cl)cc1` the same measures were 2280 nM and 10.4 µM.
With `Oc1[nH]c2ccc(Cl)cc2c1/C=c1/ccc2c(c1)N=C(c1cc(F)cc(F)c1)N=2`, the GI50 was 3460 nM and the concentration for total growth inhibition (TGI) amounted to 13.2 µM.
Taken in the same sequence, the figures for `Cc1cc2nc3c4ccccc4n(CCN(C)C)c3nc2cc1C` were 1320 nM and 3.62 µM.
As for `COc1cnc2c(c1)C(=O)c1c-2n(CCCN2CCN(CCO)CC2)c(=O)c2cc([N+](=O)[O-])ccc12`, the GI50 is 2470 nM and the concentration for total growth inhibition (TGI) turned out to be 7.54 µM.
`CON`: the GI50 was greater than 100000 nM and the TGI was greater than 100 µM.
Consider `C[C@@H]1CN2[C@H]3[C@@H]1CC[C@]31CCC(=O)O[C@]1(C)[C@@H]1CC[C@H]3CCC=C3[C@@H]12`, for which the GI50 was greater than 70000 nM and the total growth inhibition concentration (TGI) was greater than 70 µM.

In general, GI50 refers to the concentration giving 50% growth inhibition. One may read the TGI as the concentration giving total growth inhibition. Higher therefore signals lower sensitivity of the cells.
